Test results published in patent US20220304958A1, “SMALL MOLECULE INHIBITORS OF A PROTEIN COMPLEX” (THE REGENTS OF THE UNIVERSITY OF CALIFORNIA, priority 2019, published 2022).
Like-named read-outs stand apart in the source and are kept apart here. Peptide text beside a SMILES is read from it.

Biological target: T1, HEG1-KRIT1 interaction (Homo sapiens, UniProt O00522)
T1 construct: His6-EGFP-KRIT1 (WT) FERM domain (417-736) and KRIT1 (L717,721A) mutant were cloned into pETM-11; His6 (N); made in house; host or cells: E. coli BL21 Star (DE3)
Experiment: Flow cytometry assay for the HEG1-KRIT1 FERM domain interaction (competition binding on HEG1 matrix beads)
Method: Bead Coupling. SPHERO Neutravidin Polystyrene Particles, […] (Spherotech) were washed twice with wash buffer (20 mM Tris, 150 mM NaCl. pH 7.4 containing 0.01% NP-40, and 1 mM EDTA). Prior to incubation with biotin-tagged HEG 1 cytoplasmic tail protein, an appropriate volume of bead slurry was passivated to inhibit non-specific binding by incubation for 30 minutes at room temperature in reaction buffer containing 0.1% BSA (20 mM Tris, 150 mM NaCl, pH 7.4 0.01% NP-40, 1 mM EDTA, 1 mM DTT, and 0.1% BSA). Passivated beads were collected by centrifugation, resuspended to 3,600 particles/μl in reaction buffer and biotinylated HEG1 tail was added to a final concentration of 150 nM and incubated overnight on a rotator at 4° C. The beads were washed three times by centrifugation with ice-cold reaction buffer to remove unbound HEG1 peptide. Beads were diluted such that a final concentration of 2000 beads/μL were available for addition to assay plates.
Flow cytometry assay. A final volume of 100 μl containing 140 nM EGFP-KRIT1 FERM domain, with 10% DMSO or 10% compounds in DMSO, was incubated for 15 minutes at room temperature on a rotator. 100 μl of beads were added to the mixture for a final volume of 200 μl at 1,000 particles/μl with 70 nM EGFP-KRIT1 and incubated for 15 minutes at room temperature on a rotator. The control beads were: without KRIT1 (minimum signal); with KRIT1 (maximum signal); and with KRIT1 plus 2 μM HEG1 7-mer (positive blocking control). The EGFP fluorescence was measured using a BD Accuri flow cytometer. For screening purposes, the final volume of the reaction was scaled down to 10 μl and samples were processed as previously described (27). For FIGS. 1D-1F, 2B, and 3E, a representative experiment is shown of at the least 3 independent repeats.
Assay plate assembly. Plate assays were performed in 384-well microtiter plates (Greiner Bio-one, #784101). Reaction buffer. HEG1-coupled beads, and EGFP-KRIT-FERM constructs were added using a MultiFlo™ Microplate Dispenser (BioTek Instruments, Inc.). Compounds were added to single-point assay plates pre-loaded with reaction buffer using a Biomek^NX liquid handler (BeckmanCoulter) equipped with a […] pintool (V & P Scientific, Inc.). Compound libraries were dispensed to a final concentration of 10 μM. An equal volume (10 nL) of DMSO was added to the vehicle control wells. Following the addition of library compounds, 5 μL of assay buffer was added and the plates were mixed before addition of 5 μL of the protein-coupled bead mixtures; Plates were protected from light and incubated on a rotator for 15 minutes at room temperature. Binding of EGFP-KRIT to HEG1 coupled beads was evaluated using an Accuri C6 flow cytometer.
Data Acquisition. Assay plates were sampled using the HyperCyt™ high throughput flow cytometry platform (Intellicyt; Albuquerque, N. Mex.). During sampling, the probe moves from well to well and samples 1-2 μL from each well pausing 0.4 sec in the air before sampling the next well. The resulting sample stream consisting of 384 separated samples is delivered to an Accuri C6 flow cytometer (BD Biosciences; San Jose, Calif.). Plate data are acquired as time-resolved files that are parsed by software-based well identification algorithms and merged with compound library files. Plate performance was validated using the Z-prime calculation (28).
Compounds that satisfied hit selection criteria in the primary screen were cherry-picked from compound storage plates and tested to confirm activity and determine potency. Dose response data points were fitted by Prism software (GraphPad Software Inc., San Diego, Calif.) using nonlinear least-squares regression in a sigmoidal dose-response model with variable slope, also known as the 4-parameter logistic equation.

[1] = Table 2, flow cytometry-screening assay, NI = no inhibition detected up to 500 μM
[2] = Table 2, flow cytometry-screening assay, NI = no inhibition detected up to 500 μM, read-out: IC50
[3] = inhibition of the HEG1-KRIT1 interaction, flow cytometry assay

T1 sequence (O00522 417-736): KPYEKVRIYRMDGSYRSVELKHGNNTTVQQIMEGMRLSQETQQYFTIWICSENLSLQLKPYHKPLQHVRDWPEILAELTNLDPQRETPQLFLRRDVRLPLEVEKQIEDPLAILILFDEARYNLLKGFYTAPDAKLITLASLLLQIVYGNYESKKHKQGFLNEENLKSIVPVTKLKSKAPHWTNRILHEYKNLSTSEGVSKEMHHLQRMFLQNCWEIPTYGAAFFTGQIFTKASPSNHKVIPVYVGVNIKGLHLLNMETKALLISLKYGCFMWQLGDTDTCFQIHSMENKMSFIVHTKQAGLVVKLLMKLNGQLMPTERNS

Row | Compound | IC50 [2] [µM] | further results
1 | COC(=O)c1ccccc1NC(=O)c1c(O)ccc2ccccc12 [BL-0589, methyl 2-(2-hydroxy-1-naphthamido)benzoate] |  | IC50 (μM) [1]: precipitation
2 | O=C(O)c1ccccc1/N=C/c1c(O)ccc2ccccc12 [BL-0547 (Hki3), (E)-2-(((2-hydroxynaphthalen-1-yl)methylene)amino)benzoic acid] | 2.9 | 
3 | O=Cc1c(O)ccc2cccc(O)c12 [BL-0693, 2,8-dihydroxy-1-naphthaldehyde] | 45 | 
4 | O=C(O)c1ccccc1NCc1c(O)ccc2ccccc12 [BL-0588, 2-(((2-hydroxynaphthalen-1-yl)methyl)amino)benzoic acid] | > 500 | 
5 | NCc1c(O)ccc2ccccc12 [BL-0592, 1-(aminomethyl)naphthalen-2-ol] | > 500 | 
6 | OCC(CO)c1c(O)ccc2ccccc12 [BL-703, 2-(2-hydroxynaphthalen-1-yl)propane-1,3-diol] | > 500 | 
7 | O=C(O)c1ccccc1CCc1c(O)ccc2ccccc12 [BL-0606, 2-(2-(2-hydroxynaphthalen-1-yl)ethyl)benzoic acid] | > 500 | 
8 | CCOc1ccc2c(C=O)c(O)ccc2c1 [BL-0794, 6-Ethoxy-2-hydroxy-1-naphthaldehyde] | 4.6 | 
9 | CN(C)c1ccc2c(C=O)c(O)ccc2c1 [BL-0737, 6-(Dimethylamino)-2-hydroxy-1-naphthaldehyde] | 2.6 | 
10 | CC(O)c1c(O)ccc2ccccc12 (centres unmarked) [BL-0713, 1-(1-hydroxyethyl)naphthalen-2-ol] | > 500 | 
11 | Oc1ccc2ccccc2c1/C=N/c1nn[nH]n1 [BL-0549, (E)-1-(((1H-tetrazol-5-yl)imino)methyl)naphthalen-2-ol] | 3.2 | 
12 | O=C(O)c1ccccc1C#Cc1c(O)ccc2ccccc12 [BL-0604, 2-((2-hydroxynaphthalen-1-yl)ethynyl)benzoic acid] | > 500 | 
13 | OC1(c2cccc3ccccc23)COC1 [BL-0695, 3-(naphthalen-1-yl)oxetan-3-ol] | > 500 | 
14 | O=C(O)c1ccc(/N=C/c2c(O)ccc3ccccc23)cc1 [BL-0552, (E)-4-(((2-hydroxynaphthalen-1-yl)methylene)amino)benzoic acid] | 1.8 | 
15 | Oc1ccc2ccccc2c1/C=N/c1ncn[nH]1 [BL-0550, (E)-1-(((1H-1,2,4-triazol-5-yl)imino)methy)naphthalen-2-ol] |  | IC50 (μM) [1]: precipitation
16 | Oc1ccc2c(/C=N/c3ccccc3)c(O)ccc2c1 [BL-0661 (HKi7), 1-((phenylimino)methyl)naphthalene-2,6-diol] | 32 | 
17 | CCc1ccc2c(C=O)c(O)ccc2c1 [BL-0740, 6-Ethyl-2-hydroxy-1-naphthaldehyde] | 3.9 | 
18 | C=CCc1ccc2c(C=O)c(O)ccc2c1 [BL-0739, 6-Allyl-2-hydroxy-1-naphthaldehyde] | 1.1 | 
19 | N#Cc1ccc2c(C=O)c(O)ccc2c1 [BL-0788, 5-Formyl-6-hydroxy-2-naphthonitrile] | 3.6 | 
20 | O=C(O)c1ccccc1NC(=O)c1c(O)ccc2ccccc12 [BL-0590, 2-(2-hydroxy-1-naphthamido)benzoic acid] | > 500 | 
21 | CC(NC(=O)c1ccccc1N)c1ccccc1 (centres unmarked) [Compound 4, 2-amino-N-(1-phenylethyl)benzamide] | > 500 | 
22 | O=Cc1nccc2ccccc12 [BL-0607, Isoquinoline-1-carbaldehyde] | > 500 | IC50 [3]: no inhibition
23 | O=Cc1c(O)ccc2cc(-c3cccs3)ccc12 [BL-0819, 2-Hydroxy-6-(thiophen-2-yl)-1-naphthaldehyde] | 1.2 | 
24 | Oc1ccc2ccccc2c1C(O)C(F)(F)F (centres unmarked) [BL-706, 1-(2,2,2-Trifluoro-1-hydroxyethyl)naphthalen-2-ol] | > 500 | 

Row | Compound | IC50 [2] [µM] | further results
25 | CC(O)c1ccc2c(C=O)c(O)ccc2c1 (centres unmarked) [BL-0745, 2-Hydroxy-6-(1-hydroxyethyl)-1-naphthaldehyde] | 31.9 | 
26 | CSc1c(O)ccc2ccccc12 [BL-707, 1-(methylthio)naphthalen-2-ol] | > 500 | 
27 | CCCCc1ccc2c(C=O)c(O)ccc2c1 [BL-0743, 6-Butyl-2-hydroxy-1-naphthaldehyde] | 78.8 | 
28 | CCOC(=O)/C=C/c1ccc2c(C=O)c(O)ccc2c1 [BL-0744, Ethyl (E)-3-(5-formyl-6-hydroxynaphthalen-2-yl)acrylate] | 79.3 | 
29 | O=Cc1c(O)ccc2cc(-c3ccccc3)ccc12 [BL-0818, 2-Hydraxy-6-phenyl-1-naphthaldehyde] | 3 | 
30 | CS(=O)(=O)c1c(O)ccc2ccccc12 [BL-704, 1-(Methylsulfonyl)naphthalen-2-ol] | > 500 | 
31 | c1ccc2c(c1)ccc1oncc12 [BL-0593, naphtho[1,2-d]isoxazole] | > 500 | 
32 | C[S+]([O-])c1c(O)ccc2ccccc12 (centres unmarked) [BL-705, 1-(Methylsulfinyl)naphthalen-2-ol] | > 500 | 
33 | N=C(N)NCCC[C@H](NC(=O)[C@H](CCCNC(=N)N)NC(=O)[C@H](CCCNC(=N)N)NC(=O)[C@@H](N)CO)C(=O)N[C@@H](CC(=O)O)C(=O)N[C@@H](Cc1ccc(O)cc1)C(=O)N[C@@H](Cc1ccccc1)C(=O)O [HEG1 C-terminus 7-mer peptide, reference compound] (H-SRRRDYF-OH; N-terminus and C-terminus assumed) |  | IC50 (blocking of GFP-KRIT1 FERM domain binding to HEG1 matrix beads, read-out: IC50): 0.41 µM
34 | COc1cccc2ccc(O)c(C=O)c12 [BL-0691, 2-hydroxy-8-methoxy-1-naphthaldehyde] | 18 | 
35 | CC#Cc1ccc2c(C=O)c(O)ccc2c1 [BL-0817, 2-Hydroxy-6-(prop-1-yn-1-yl)-1-naphthaldehyde] | 15 | 
36 | C#Cc1ccc2c(C=O)c(O)ccc2c1 [BL-0742, 6-Ethynyl-2-hydroxy-1-naphthaldehyde] | 4 | 
37 | O=Cc1cc(-c2ccccc2)ccc1O [BL-0628 (HKi4), 4-Hydroxy-[1,1′-biphenyl]-3-carbaldehyde] | 21.8 | 
38 | Oc1ccc2ccccc2c1/C=N/c1cccnc1 [BL-0551, (E)-1-((pyridin-3-ylimino)methyl)naphthalen-2-ol] |  | IC50 (μM) [1]: precipitation
39 | ON=Cc1c(O)ccc2ccccc12 [BL-0591, 2-hydroxy-l-naphthaldehyde oxime] | > 500 | 
40 | O=C(O)c1ccccc1/C=C/c1c(O)ccc2ccccc12 [BL-0605, (E)-2-(2-(2-hydroxynaphthalen-1-yl)vinyl)benzoic acid] | > 500 | 
41 | O=C(O)c1cccc(/N=C/c2c(O)ccc3ccccc23)c1 [BL-0558, (E)-3-(((2-hydroxynaphthalen-1-yl)methylene)amino)benzoic acid] | 3.2 | 
42 | O=Cc1ccccc1O [Compound 16, Salicylaldehyde] | > 500 | IC50 [3]: did not exhibit detectable activity
43 | O=Cc1c(O)ccc2cc(Cl)ccc12 [BL-702 (Hki10), 6-chloro-2-hydroxy-1-naphthaldehyde] | 3.2 | 
44 | CC(N)c1ccccc1N (centres unmarked) [Compound 5, 2-(1-aminoethyl)aniline] | > 500 | 
45 | CC(=O)c1ccc2c(C=O)c(O)ccc2c1 [BL-0700 (HKi9), 6-acetyl-2-hydroxy-1-naphthaldehyde] | 58.6 | 
46 | O=Cc1c(O)ccc2cc(N3CCC3=O)ccc12 [BL-0738, 2-Hydroxy-6-(2-oxoazetidin-1-yl)-1-naphthaldehyde] | 30.3 | 
47 | O=Cc1c(O)ccc2cc(N3CCCCC3)ccc12 [BL-0736, 2-Hydroxy-6-(piperidin-1-yl)-1-naphthaldehyde] | 28.8 | 
48 | Cc1ccc2c(C=O)c(O)ccc2c1 [BL-0666 (HKi8), 2-hydroxy-6-methyl-1-naphthaldehyde] | 5.1 | 
